According to ChEMBL document CHEMBL3991601, “The target landscape of clinical kinase drugs” (Science, 2017):
Calls of active or inactive are those of the source. Cut-off read from the data, not from the text of the source, for most assays here: actives have a measured Kd and inactives only a lower limit.

Each compound was assayed against Fibroblast growth factor receptor 1 (Homo sapiens, UniProt P11362).
Note: in the data inactive means no Kd found up to 30 µM.

Sequence of Fibroblast growth factor receptor 1 (P11362 whole entry): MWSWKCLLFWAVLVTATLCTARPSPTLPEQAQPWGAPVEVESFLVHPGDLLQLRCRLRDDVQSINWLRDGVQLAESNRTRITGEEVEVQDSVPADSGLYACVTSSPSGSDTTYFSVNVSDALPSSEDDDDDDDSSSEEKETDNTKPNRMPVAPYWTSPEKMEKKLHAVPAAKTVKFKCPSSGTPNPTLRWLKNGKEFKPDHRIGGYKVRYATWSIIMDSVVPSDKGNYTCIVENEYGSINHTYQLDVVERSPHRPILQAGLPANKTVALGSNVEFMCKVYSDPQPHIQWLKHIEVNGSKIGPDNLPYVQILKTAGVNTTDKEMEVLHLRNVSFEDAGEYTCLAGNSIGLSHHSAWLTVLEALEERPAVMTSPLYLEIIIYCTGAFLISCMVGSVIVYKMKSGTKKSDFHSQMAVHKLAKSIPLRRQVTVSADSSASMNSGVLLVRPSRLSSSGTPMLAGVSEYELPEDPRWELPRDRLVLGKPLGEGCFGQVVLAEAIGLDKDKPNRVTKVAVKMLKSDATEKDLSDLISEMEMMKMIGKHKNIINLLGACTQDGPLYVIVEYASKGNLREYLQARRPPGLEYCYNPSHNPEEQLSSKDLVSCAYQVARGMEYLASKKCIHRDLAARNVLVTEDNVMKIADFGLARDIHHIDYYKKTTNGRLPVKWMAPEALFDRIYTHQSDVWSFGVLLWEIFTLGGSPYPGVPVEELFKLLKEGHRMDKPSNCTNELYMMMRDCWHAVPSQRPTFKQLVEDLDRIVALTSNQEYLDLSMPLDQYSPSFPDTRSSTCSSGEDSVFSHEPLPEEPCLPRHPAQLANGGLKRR

SMILES	Kd
O=C(O)[C@]1(Cc2cccc(Nc3nccs3)n2)CC[C@@H](Oc2cccc(Cl)c2F)CC1 [MK-5108]	> 30 µM (inactive)
C1=C/COCc2cc(ccc2OCCN2CCCC2)Nc2nccc(n2)-c2cccc(c2)COC/1 [PACRITINIB]	> 30 µM (inactive)
Cc1ccc(-n2nc(C(C)(C)C)cc2NC(=O)NCc2cc(F)ccc2Oc2ccc3c(cnn3CCO)c2)cc1 [PEXMETINIB]	2.67 µM (active)
C=CC(=O)N1CCC(Oc2cc3c(Nc4ccc(Cl)c(Cl)c4F)ncnc3cc2OC)CC1 [POZIOTINIB]	> 30 µM (inactive)

Each compound was assayed against DNA topoisomerase 2-beta (Homo sapiens, UniProt Q02880).
Sequence of DNA topoisomerase 2-beta (Q02880 whole entry): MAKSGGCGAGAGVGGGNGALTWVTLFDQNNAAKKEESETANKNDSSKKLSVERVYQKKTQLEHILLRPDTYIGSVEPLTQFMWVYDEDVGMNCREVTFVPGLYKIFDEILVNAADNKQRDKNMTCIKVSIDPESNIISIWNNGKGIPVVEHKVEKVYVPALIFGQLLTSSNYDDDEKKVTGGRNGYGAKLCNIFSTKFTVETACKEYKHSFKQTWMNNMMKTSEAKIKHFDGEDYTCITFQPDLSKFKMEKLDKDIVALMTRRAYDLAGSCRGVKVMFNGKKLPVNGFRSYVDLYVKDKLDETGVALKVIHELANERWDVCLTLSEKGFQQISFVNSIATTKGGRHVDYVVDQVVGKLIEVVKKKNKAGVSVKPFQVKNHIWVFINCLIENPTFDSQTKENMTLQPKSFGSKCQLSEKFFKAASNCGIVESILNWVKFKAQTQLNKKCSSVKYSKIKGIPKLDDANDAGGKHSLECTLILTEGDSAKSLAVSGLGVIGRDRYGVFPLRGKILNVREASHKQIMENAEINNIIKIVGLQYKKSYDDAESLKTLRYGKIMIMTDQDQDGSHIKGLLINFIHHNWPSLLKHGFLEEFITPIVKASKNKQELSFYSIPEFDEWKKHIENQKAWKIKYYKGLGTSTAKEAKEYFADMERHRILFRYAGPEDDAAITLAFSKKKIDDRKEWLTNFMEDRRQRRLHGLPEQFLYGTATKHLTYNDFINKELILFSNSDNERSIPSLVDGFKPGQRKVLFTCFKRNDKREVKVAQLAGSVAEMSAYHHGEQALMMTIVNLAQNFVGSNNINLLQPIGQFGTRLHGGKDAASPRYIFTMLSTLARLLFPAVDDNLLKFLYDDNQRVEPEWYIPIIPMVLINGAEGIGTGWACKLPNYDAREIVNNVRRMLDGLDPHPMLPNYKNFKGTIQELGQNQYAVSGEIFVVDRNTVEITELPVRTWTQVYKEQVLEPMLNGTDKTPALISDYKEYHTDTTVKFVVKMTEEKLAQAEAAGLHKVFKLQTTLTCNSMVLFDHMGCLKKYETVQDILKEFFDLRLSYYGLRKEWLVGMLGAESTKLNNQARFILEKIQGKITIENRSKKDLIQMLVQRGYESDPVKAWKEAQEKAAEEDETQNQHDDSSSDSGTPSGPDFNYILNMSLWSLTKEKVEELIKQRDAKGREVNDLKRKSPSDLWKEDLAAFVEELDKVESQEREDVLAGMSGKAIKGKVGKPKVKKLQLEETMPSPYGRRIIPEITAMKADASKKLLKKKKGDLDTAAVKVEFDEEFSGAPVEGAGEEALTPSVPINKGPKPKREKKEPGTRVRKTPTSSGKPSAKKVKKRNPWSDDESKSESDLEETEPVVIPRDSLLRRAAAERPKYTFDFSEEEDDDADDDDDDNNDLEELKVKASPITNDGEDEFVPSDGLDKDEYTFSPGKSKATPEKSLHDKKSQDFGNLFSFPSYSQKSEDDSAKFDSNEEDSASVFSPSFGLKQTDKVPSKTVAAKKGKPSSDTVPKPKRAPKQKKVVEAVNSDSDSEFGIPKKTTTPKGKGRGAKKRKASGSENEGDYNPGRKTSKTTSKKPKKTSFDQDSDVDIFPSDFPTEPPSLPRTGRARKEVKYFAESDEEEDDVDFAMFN

SMILES	Kd
O=C(O)[C@]1(Cc2cccc(Nc3nccs3)n2)CC[C@@H](Oc2cccc(Cl)c2F)CC1 [MK-5108]	> 30 µM (inactive)
C1=C/COCc2cc(ccc2OCCN2CCCC2)Nc2nccc(n2)-c2cccc(c2)COC/1 [PACRITINIB]	> 30 µM (inactive)
Cc1ccc(-n2nc(C(C)(C)C)cc2NC(=O)NCc2cc(F)ccc2Oc2ccc3c(cnn3CCO)c2)cc1 [PEXMETINIB]	> 30 µM (inactive)
C=CC(=O)N1CCC(Oc2cc3c(Nc4ccc(Cl)c(Cl)c4F)ncnc3cc2OC)CC1 [POZIOTINIB]	> 30 µM (inactive)

These compounds were tested against T1, NUAK family SNF1-like kinase 2 (Homo sapiens, UniProt Q9H093).
T1 sequence (Q9H093 whole entry): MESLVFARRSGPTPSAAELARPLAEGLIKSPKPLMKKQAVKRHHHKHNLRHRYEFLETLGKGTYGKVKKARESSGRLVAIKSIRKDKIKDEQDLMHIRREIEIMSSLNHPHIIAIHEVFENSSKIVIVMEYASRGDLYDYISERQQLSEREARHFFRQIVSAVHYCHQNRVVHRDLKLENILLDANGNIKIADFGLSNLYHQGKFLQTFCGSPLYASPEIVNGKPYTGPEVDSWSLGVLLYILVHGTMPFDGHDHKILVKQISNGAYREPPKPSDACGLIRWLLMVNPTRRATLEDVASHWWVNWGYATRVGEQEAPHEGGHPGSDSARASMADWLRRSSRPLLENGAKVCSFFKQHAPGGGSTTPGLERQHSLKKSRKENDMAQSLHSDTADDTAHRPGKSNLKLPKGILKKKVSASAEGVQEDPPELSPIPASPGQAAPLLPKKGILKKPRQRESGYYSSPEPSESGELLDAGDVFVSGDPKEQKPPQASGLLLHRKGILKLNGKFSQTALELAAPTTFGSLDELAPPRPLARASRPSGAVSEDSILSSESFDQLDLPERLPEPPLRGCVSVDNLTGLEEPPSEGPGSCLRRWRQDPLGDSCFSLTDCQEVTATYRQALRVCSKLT

SMILES	Kd
O=C(O)[C@]1(Cc2cccc(Nc3nccs3)n2)CC[C@@H](Oc2cccc(Cl)c2F)CC1 [MK-5108]	> 30 µM (inactive)
C1=C/COCc2cc(ccc2OCCN2CCCC2)Nc2nccc(n2)-c2cccc(c2)COC/1 [PACRITINIB]	> 30 µM (inactive)
Cc1ccc(-n2nc(C(C)(C)C)cc2NC(=O)NCc2cc(F)ccc2Oc2ccc3c(cnn3CCO)c2)cc1 [PEXMETINIB]	> 30 µM (inactive)
C=CC(=O)N1CCC(Oc2cc3c(Nc4ccc(Cl)c(Cl)c4F)ncnc3cc2OC)CC1 [POZIOTINIB]	> 30 µM (inactive)

These compounds were tested against Mitogen-activated protein kinase kinase kinase kinase 4 (Homo sapiens, UniProt O95819).
Sequence of Mitogen-activated protein kinase kinase kinase kinase 4 (O95819 whole entry): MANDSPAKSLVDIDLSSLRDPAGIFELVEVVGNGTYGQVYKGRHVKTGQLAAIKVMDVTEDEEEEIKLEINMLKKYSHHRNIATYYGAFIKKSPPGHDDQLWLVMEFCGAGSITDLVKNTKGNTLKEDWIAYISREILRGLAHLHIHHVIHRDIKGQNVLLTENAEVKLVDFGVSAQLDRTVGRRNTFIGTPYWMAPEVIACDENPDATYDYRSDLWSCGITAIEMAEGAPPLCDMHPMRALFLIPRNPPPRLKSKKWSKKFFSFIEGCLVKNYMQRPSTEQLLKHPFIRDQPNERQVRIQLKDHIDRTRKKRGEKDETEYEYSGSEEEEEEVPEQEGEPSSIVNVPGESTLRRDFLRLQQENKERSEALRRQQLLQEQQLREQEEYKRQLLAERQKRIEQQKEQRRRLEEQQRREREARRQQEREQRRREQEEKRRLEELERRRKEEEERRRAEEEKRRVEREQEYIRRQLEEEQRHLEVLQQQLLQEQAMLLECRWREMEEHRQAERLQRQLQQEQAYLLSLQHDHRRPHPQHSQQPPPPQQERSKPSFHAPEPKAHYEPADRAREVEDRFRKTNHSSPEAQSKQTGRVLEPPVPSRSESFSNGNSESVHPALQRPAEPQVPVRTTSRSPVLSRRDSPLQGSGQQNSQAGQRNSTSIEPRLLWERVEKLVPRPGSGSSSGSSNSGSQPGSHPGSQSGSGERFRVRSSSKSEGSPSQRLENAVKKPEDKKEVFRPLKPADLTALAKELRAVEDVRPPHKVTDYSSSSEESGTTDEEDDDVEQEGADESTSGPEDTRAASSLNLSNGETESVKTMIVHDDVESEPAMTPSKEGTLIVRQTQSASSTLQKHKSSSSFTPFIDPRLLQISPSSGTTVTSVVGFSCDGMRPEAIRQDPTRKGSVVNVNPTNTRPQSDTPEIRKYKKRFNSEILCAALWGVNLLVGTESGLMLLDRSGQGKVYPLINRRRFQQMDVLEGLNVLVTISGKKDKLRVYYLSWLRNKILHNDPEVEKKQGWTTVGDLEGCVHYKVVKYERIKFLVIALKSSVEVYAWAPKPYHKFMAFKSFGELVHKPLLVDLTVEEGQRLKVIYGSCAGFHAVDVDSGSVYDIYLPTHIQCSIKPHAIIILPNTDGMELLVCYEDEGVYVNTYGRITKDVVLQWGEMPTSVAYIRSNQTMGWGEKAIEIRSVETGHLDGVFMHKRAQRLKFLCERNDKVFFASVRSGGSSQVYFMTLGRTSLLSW

SMILES	Kd
O=C(O)[C@]1(Cc2cccc(Nc3nccs3)n2)CC[C@@H](Oc2cccc(Cl)c2F)CC1 [MK-5108]	> 30 µM (inactive)
C1=C/COCc2cc(ccc2OCCN2CCCC2)Nc2nccc(n2)-c2cccc(c2)COC/1 [PACRITINIB]	0.293 µM (active)
Cc1ccc(-n2nc(C(C)(C)C)cc2NC(=O)NCc2cc(F)ccc2Oc2ccc3c(cnn3CCO)c2)cc1 [PEXMETINIB]	0.222 µM (active)
C=CC(=O)N1CCC(Oc2cc3c(Nc4ccc(Cl)c(Cl)c4F)ncnc3cc2OC)CC1 [POZIOTINIB]	> 30 µM (inactive)

The compounds below were run against T2, Acyl-CoA dehydrogenase family member 10 (Homo sapiens, UniProt Q6JQN1).
T2 sequence (Q6JQN1 whole entry): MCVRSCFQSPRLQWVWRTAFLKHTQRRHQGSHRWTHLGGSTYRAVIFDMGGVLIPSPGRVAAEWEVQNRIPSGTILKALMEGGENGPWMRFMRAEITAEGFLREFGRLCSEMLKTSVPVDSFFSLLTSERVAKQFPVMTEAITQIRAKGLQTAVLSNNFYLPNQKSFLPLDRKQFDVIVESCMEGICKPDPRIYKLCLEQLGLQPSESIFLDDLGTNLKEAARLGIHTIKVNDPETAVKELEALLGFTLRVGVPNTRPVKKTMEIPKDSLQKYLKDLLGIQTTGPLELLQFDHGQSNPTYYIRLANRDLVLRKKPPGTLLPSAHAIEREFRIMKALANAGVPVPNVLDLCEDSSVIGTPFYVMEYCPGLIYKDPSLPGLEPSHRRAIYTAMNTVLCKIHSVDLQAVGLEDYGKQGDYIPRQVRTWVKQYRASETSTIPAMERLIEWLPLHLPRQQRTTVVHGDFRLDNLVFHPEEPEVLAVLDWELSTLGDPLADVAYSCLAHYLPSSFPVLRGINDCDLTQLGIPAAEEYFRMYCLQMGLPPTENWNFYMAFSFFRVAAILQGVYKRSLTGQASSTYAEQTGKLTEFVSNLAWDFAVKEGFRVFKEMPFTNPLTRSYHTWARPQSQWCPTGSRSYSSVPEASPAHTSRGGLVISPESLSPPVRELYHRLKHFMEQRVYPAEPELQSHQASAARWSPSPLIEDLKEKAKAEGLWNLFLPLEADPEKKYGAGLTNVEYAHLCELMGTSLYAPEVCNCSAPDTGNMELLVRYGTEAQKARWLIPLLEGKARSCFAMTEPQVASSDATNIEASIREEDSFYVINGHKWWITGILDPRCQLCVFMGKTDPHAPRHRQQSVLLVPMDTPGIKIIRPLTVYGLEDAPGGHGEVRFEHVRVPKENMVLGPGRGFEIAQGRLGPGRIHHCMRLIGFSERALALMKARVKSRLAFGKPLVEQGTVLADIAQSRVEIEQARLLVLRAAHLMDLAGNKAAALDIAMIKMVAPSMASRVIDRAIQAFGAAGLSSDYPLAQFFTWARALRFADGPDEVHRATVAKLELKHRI

SMILES	Kd
O=C(O)[C@]1(Cc2cccc(Nc3nccs3)n2)CC[C@@H](Oc2cccc(Cl)c2F)CC1 [MK-5108]	2.47 µM (active)
C1=C/COCc2cc(ccc2OCCN2CCCC2)Nc2nccc(n2)-c2cccc(c2)COC/1 [PACRITINIB]	> 30 µM (inactive)
Cc1ccc(-n2nc(C(C)(C)C)cc2NC(=O)NCc2cc(F)ccc2Oc2ccc3c(cnn3CCO)c2)cc1 [PEXMETINIB]	> 30 µM (inactive)
C=CC(=O)N1CCC(Oc2cc3c(Nc4ccc(Cl)c(Cl)c4F)ncnc3cc2OC)CC1 [POZIOTINIB]	> 30 µM (inactive)

The compounds below were run against Serine/threonine-protein kinase B-raf (Homo sapiens, UniProt P15056).
Sequence of Serine/threonine-protein kinase B-raf (P15056 whole entry): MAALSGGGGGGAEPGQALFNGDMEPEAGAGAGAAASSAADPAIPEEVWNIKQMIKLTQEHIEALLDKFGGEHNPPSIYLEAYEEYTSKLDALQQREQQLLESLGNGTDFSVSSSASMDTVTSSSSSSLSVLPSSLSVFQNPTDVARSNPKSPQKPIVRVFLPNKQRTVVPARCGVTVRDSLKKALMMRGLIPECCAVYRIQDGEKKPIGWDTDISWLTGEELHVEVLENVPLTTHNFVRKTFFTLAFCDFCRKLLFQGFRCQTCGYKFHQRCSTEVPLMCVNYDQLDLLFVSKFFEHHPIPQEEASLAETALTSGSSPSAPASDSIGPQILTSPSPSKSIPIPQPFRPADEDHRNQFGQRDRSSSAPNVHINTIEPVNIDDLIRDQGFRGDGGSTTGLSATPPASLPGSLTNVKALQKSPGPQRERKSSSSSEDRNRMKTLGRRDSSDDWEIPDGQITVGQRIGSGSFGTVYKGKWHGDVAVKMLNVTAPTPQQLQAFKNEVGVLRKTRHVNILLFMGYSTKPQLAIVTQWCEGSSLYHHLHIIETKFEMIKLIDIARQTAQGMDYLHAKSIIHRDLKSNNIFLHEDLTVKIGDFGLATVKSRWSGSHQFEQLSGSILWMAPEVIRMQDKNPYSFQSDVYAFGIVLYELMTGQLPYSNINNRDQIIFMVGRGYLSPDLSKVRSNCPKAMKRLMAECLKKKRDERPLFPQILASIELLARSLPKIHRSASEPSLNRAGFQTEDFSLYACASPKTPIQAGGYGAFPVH

SMILES	Kd
O=C(O)[C@]1(Cc2cccc(Nc3nccs3)n2)CC[C@@H](Oc2cccc(Cl)c2F)CC1 [MK-5108]	> 30 µM (inactive)
C1=C/COCc2cc(ccc2OCCN2CCCC2)Nc2nccc(n2)-c2cccc(c2)COC/1 [PACRITINIB]	> 30 µM (inactive)
Cc1ccc(-n2nc(C(C)(C)C)cc2NC(=O)NCc2cc(F)ccc2Oc2ccc3c(cnn3CCO)c2)cc1 [PEXMETINIB]	5.23 µM (active)
C=CC(=O)N1CCC(Oc2cc3c(Nc4ccc(Cl)c(Cl)c4F)ncnc3cc2OC)CC1 [POZIOTINIB]	> 30 µM (inactive)

These compounds were tested against LIM domain kinase 1 (Homo sapiens, UniProt P53667).
Sequence of LIM domain kinase 1 (P53667 whole entry, the tested form may be a part): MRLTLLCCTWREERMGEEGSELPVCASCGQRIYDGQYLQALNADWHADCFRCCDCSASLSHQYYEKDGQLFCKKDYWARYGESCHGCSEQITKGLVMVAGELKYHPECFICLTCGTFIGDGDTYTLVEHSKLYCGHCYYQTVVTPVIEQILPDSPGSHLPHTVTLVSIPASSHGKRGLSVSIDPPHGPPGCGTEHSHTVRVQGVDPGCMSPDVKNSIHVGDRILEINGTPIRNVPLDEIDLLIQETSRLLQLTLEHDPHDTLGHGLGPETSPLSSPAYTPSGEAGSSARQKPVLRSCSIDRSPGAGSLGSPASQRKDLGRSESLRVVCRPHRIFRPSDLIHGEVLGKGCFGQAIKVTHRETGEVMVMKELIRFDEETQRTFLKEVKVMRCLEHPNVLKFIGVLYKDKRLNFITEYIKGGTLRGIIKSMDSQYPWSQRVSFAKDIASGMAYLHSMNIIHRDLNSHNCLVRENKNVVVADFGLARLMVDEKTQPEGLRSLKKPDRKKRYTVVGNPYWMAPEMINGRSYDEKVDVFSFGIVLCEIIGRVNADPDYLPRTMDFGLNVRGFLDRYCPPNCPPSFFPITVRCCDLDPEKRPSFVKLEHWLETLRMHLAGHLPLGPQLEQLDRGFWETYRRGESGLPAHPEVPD

SMILES	Kd
O=C(O)[C@]1(Cc2cccc(Nc3nccs3)n2)CC[C@@H](Oc2cccc(Cl)c2F)CC1 [MK-5108]	5.09 µM (active)
C1=C/COCc2cc(ccc2OCCN2CCCC2)Nc2nccc(n2)-c2cccc(c2)COC/1 [PACRITINIB]	> 30 µM (inactive)
Cc1ccc(-n2nc(C(C)(C)C)cc2NC(=O)NCc2cc(F)ccc2Oc2ccc3c(cnn3CCO)c2)cc1 [PEXMETINIB]	> 30 µM (inactive)
C=CC(=O)N1CCC(Oc2cc3c(Nc4ccc(Cl)c(Cl)c4F)ncnc3cc2OC)CC1 [POZIOTINIB]	> 30 µM (inactive)

What follows are compounds tested against T3, Serine/threonine-protein kinase 4 (Homo sapiens, UniProt Q13043).
T3 sequence (Q13043 whole entry): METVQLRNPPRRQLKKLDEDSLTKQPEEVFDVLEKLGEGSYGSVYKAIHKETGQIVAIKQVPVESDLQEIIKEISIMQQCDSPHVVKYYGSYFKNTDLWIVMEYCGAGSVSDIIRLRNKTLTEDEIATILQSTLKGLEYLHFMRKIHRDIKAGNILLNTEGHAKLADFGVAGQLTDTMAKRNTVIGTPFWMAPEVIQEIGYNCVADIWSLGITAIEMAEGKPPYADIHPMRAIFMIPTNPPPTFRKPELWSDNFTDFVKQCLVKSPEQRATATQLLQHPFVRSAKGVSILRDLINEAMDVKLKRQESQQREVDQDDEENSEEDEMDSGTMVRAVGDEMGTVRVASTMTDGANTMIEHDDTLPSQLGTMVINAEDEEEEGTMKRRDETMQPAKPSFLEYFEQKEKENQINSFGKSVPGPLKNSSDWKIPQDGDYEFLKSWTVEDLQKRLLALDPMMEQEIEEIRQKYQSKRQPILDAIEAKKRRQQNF

SMILES	Kd
O=C(O)[C@]1(Cc2cccc(Nc3nccs3)n2)CC[C@@H](Oc2cccc(Cl)c2F)CC1 [MK-5108]	2.37 µM (active)
C1=C/COCc2cc(ccc2OCCN2CCCC2)Nc2nccc(n2)-c2cccc(c2)COC/1 [PACRITINIB]	> 30 µM (inactive)
Cc1ccc(-n2nc(C(C)(C)C)cc2NC(=O)NCc2cc(F)ccc2Oc2ccc3c(cnn3CCO)c2)cc1 [PEXMETINIB]	> 30 µM (inactive)
C=CC(=O)N1CCC(Oc2cc3c(Nc4ccc(Cl)c(Cl)c4F)ncnc3cc2OC)CC1 [POZIOTINIB]	> 30 µM (inactive)
